Measurements from patent US9611265B2, “Tropomyosin-related kinase (TRK) inhibitors” (Genzyme Corporation, priority 2013, dated 2017).

Experiments:
PGPS Knee Arthritis = assay: Reactivated Peptidoglycan-Polysaccharide Knee Arthritis; format: in vivo, Male Lewis rats; details: for gait scores and deficiency, first reactivation: days 1-4
Source text: Male Lewis rats were acclimated to the testing facility for 7 days. The rats were housed in 5 per cage in shoe-box polycarbonate cages with wire tops, wood chip bedding and suspended food and water bottles. On day −21, the male Lewis rats were randomized into treatment groups by body weight. The rats were anesthetized and injected with peptidoglycan-polysaccharide (PGPS) into the right knee to induce PGPS arthritis. Arthritis was reactivated on days 0 and 14 by an IV tail injection of PGPS. […] Gait analysis was performed by applying ink to the ventral surface of the foot and documenting weight bearing during movement across paper. […] Right knees were removed, trimmed of extraneous tissue, and collected into 10% neutral buffered formalin. After two days in the formalin buffer and three days in 10% formic acid decalcifier, the knees were cut into two approximately equal halves in the frontal plane and processed for paraffin embedding and stained with T.Blue. Histological examinations were subsequently performed for bone resorption, inflammation, pannus and cartilage damage. […] Gait scores were analyzed using a Kruskal-Wallis test (non-parametric ANOVA) with Dunn's multiple comparison post-test. Histopathology scores were analyzed using a Kruskal-Wallis test (non-parametric ANOVA) with Dunn's multiple comparison post-test.

[1] = system: Monosodium Lodoacetate Induced Osteoarthritis; assay: Monosodium Iodoacetate Induced Osteoarthritis, weight bearing; format: in vivo, Male Wistar rats; details: for comparison with MIA/LRS at day 35: day 35, p<0.05
Source text: Male Wistar rats were acclimated to the testing facility for 5 days. The rats were individually housed in micro-isolator shoe-box polycarbonate cages with cob bedding and water bottles. Dry pelleted food of known composition and nutritional components was provided ad libitum Animals were randomized by treatment type using an online random number generator. Each treatment group was assigned a number, entered into the random number generator, recorded then translated back to the associated treatment. All injections were given in the left leg unless the treatment indicated “Contralateral” in which case the injection was given in the right leg. Both legs were shaved on all animals at the time of the treatment injections to blind the test administrator. The rats were weighed the day prior to injection with monosodium iodoacetate (MIA), the agent used to induce osteoarthritis in the animals. The day of injection, rats from groups 2-8 received a subcutaneous (SC) dose of buprenorphine at least one hour prior to induction. […] Naïve animals were then placed in recovery. All other animals received an injection of MIA. In animals receiving MIA, the hind leg was flexed and an injection of MIA (25 μL) was injected into the intra-articular space using a 27 gauge ½ inch needle. Standard postoperative care was performed (twice daily for 48 hours). On Day 8 the test article was administered as described above. On Days −1, 7, 14, 21, 28, and 35 post-induction, weight bearing was assessed. A weight bearing scale was utilized using a plexiglass chamber to assess the amount of weight distributed in each hind limb. The animals were acclimated to the chamber for at least 5 minutes prior to testing and the weight distribution was recorded 5 times. The animals were terminated at day 36. Both stifles were collected from each animal; the skin was removed from the joint and the patella was removed while leaving as much of the fat pad intact with the joint. The stifle was placed in the appropriate cassette with rolled gauze to secure the stifle in the cassette and then placed into 4% Paraformaldehyde. These samples were examined histologically.

[2] = intra-articular on day -7 (Triamcinolone 0.06 mg; test compound 1 mg)
[3] = Triamcinolone 0.06 mg intra-articular

## COc1ccc(COc2ccc(Cn3c(N)nc4cc(-c5cnn(C)c5)cnc43)cc2OC)cc1 [Ex. 3-15, 3-(3-Methoxy-4-((4-methoxybenzyl)oxy)benzyl)-6-(1-methyl-1H-pyrazol-4-yl)-3H-imidazo[4,5-b]pyridin-2-amine]
PGPS Knee Arthritis; 1 mg intra-articular
  reduction of AUC for scores and deficiency, first reactivation: 92-93%
  reduction of AUC for scores and deficiency, second reactivation: 85-86%
  reduction of summed AUC for deficiency: 84%
PGPS Knee Arthritis; day 18, bone resorption, inflammation, pannus, cartilage damage (Triamcinolone 0.06 mg; test compound 1 mg)
  histopathology, reductions in all parameters: 49-94%
PGPS Knee Arthritis; [2]
  knee caliper measurements: significantly reduced on day 14
  reduction in knee caliper AUC: generally unaffected by treatment
  gait scores and deficiency, first reactivation: significant reductions in gait scores and deficiency throughout the first reactivation
PGPS Knee Arthritis; intra-articular on day -7 (Triamcinolone 0.06 mg; test compound 1 mg), days 15-18
  gait scores and deficiency, second reactivation: Scores were significantly reduced throughout the second reactivation, and reductions in deficiency were significant on days 15, 17, and 18
[1]; 10 μg Contralateral
  weight bearing efficacy: efficacy at 3 and 4 weeks following administration
[1]; 10 μg Ipsilateral, intra-articular on Day 8
  weight bearing efficacy: efficacy was observed at 2 through 4 weeks following administration
[1]; 30 μg Contralateral
  weight bearing efficacy: efficacy at only the 3 week timepoint
[1]; 30 μg Ipsilateral
  comparison with MIA/LRS at day 35: MIA/LRS was significantly worse
[1]; 30 μg Ipsilateral, intra-articular on Day 8
  weight bearing efficacy: effective throughout the four weeks following administration
[1]; 100 μg Contralateral, 1-4 weeks
  systemic pain relief (weight bearing): did not show systemic pain relief at any timepoint
[1]; 100 μg Ipsilateral
  comparison with MIA/LRS at day 35: MIA/LRS was significantly worse
[1]; 100 μg Ipsilateral, intra-articular on Day 8
  weight bearing efficacy: effective throughout the four weeks following administration
[1]; 10-100 μg intra-articular
  body weight results: No adverse observations
[1]; day 36
  histopathology of the knee joint: no adverse changes

## C[C@]12C=CC(=O)C=C1CC[C@H]1[C@@H]3C[C@@H](O)[C@](O)(C(=O)CO)[C@@]3(C)C[C@H](O)[C@@]12F [Triamcinolone, reference compound]
PGPS Knee Arthritis; [3]
  reduction of gait scores and deficiency AUC, each reactivation calculated separately: 74-99%
  reduction of gait scores and deficiency AUC, summed: 88-92%
PGPS Knee Arthritis; [2]
  knee caliper measurements: significantly reduced on days 2, 4, 16, and 18
  reduction in knee caliper AUC: 53-106%
  gait scores and deficiency, first reactivation: significantly reduced gait scores and deficiency throughout the first reactivation (days 1-4)
